Values of other authors as cited in patent US20210319872A1, “DRUG AND DEVICE COMBINATION PRODUCTS WITH IMPROVED SAFETY AND EFFICACY PROFILES” (priority 2016, published 2021).
Where two headings read alike, the source gives them in different places.

[1] = chronic hepatitis C-associated thrombocytopenia
[2] = chronic idiopathic thrombocytopenic purpura
[3] = Myelodysplastic syndrome, grade 3 or 4

## CC1=NN(c2ccc(C)c(C)c2)C(=O)/C1=N\Nc1cccc(-c2cccc(C(=O)O)c2)c1O [Promacta]
Adult
  AST/SGOT level raised: 4%
Chronic hepatitis C-associated thrombocytopenia and aplastic anemia
  Headache: thrombocytopenia and aplastic anemia, 21%; chronic idiopathic
Aplastic anemia
  Cough: Respiratory: Cough (Aplastic anemia, 23%; chronic ITP, pediatric,
  Diarrhea: 21%
  Fever: 14%
  Nausea: 33%), Pain in throat (Chronic idiopathic thrombocytopenic
  Pain in throat: 14%
Chronic ITP, pediatric
  ALT/SGPT level raised: 6%
  Cough: 9%
[1]
  Anemia: thrombocytopenia, 40%)
  Diarrhea: thrombocytopenia, 19%; chronic idiopathic thrombocytopenic
  Fever: 30%
  Liver failure: associated thrombocytopenia, 7%), Liver function tests abnormal
  Nausea: (Chronic hepatitis C-associated thrombocytopenia, 19%; chronic
  Portal vein thrombosis: C-associated thrombocytopenia, 1%), Thrombosis (chronic
  Thrombosis: hepatitis C-associated thrombocytopenia, 3%)
[2]
  Fatigue: purpura, 4%), Fever (Chronic hepatitis C-associated
  Headache: thrombocytopenic purpura, 10%)
  Pain in throat: 4%
Chronic idiopathic thrombocytopenic purpura, adults
  Diarrhea: 9%
Chronic idiopathic thrombocytopenic purpura, pediatric
  Diarrhea: 5%
In vivo
  Epistaxis: 13%
  Liver function tests abnormal: (11%)
  Pharyngitis: 4%
  Urinary tract infectious disease: Renal: Urinary tract infectious disease (5%)
  Vomiting: Vomiting (6%)
Listed without frequency
  Serious side effect, Hematologic: Hematologic: Bleeding, Portal vein thrombosis (chronic hepatitis
  Serious side effect, Hepatic: Hepatic: Hepatotoxicity, Liver failure (chronic hepatitis C-
  Serious side effect, Renal: Renal: Acute renal failure
pediatric
  AST/SGOT level raised: 5%

## CCOC(=O)C1=C(C)NC(C)=C(C(=O)OC)C1c1cccc(Cl)c1Cl (stereo not drawn) [Felodipine (Plendil)]
In vivo
  Flushing: Dermatologic: Flushing (3.9% to 6.9%)
  Headache: Neurologic: Headache (10.6% to 14.7%)
  Hypotension: Cardiovascular: Angina, Hypotension (less than 0.5%), Myocardial
  Indigestion: Gastrointestinal: Indigestion (0.5% to 3.9%)
  Peripheral edema: Cardiovascular: Peripheral edema (2% to 17.4%)
  Upper respiratory infection: Respiratory: Upper respiratory infection (0.7% to 3.9%)

## CNCCC(Oc1ccc(C(F)(F)F)cc1)c1ccccc1 (stereo not drawn) [Fluoxetine (Prozac)]
In vivo
  Anxiety: Psychiatric: Anxiety (3% to 15%), Feeling nervous (3% to 14%)
  Asthenia: Neurologic: Asthenia (7% to 21%), Dizziness (2% to 11%),
  Diarrhea: Gastrointestinal: Diarrhea (8% to 18%), Indigestion (6% to 10%),
  Dizziness: Neurologic: Asthenia (7% to 21%), Dizziness (2% to 11%),
  Feeling nervous: Psychiatric: Anxiety (3% to 15%), Feeling nervous (3% to 14%)
  Indigestion: Gastrointestinal: Diarrhea (8% to 18%), Indigestion (6% to 10%),
  Influenza-like symptoms: Other: Influenza-like symptoms (3% to 12%)
  Insomnia: Insomnia (9% to 33%), Somnolence (5% to 17%), Tremor (3% to
  Nausea: Loss of appetite (3.8% to 17%), Nausea (12% to 29%), Xerostomia
  Pharyngitis: Respiratory: Pharyngitis (3% to 11%), Rhinitis (16% to 23%)
  Rhinitis: Respiratory: Pharyngitis (3% to 11%), Rhinitis (16% to 23%)
  Seizure: Neurologic: Seizure (0.2%)
  Xerostomia: (4% to 12%)

## COc1ccc([C@@H]2Sc3ccccc3N(CCN(C)C)C(=O)[C@@H]2OC(C)=O)cc1 [Diltiazem (Cardizem, Tiazac)]
In vivo
  Bradyarrhythmia: Cardiovascular: Bradyarrhythmia (1.7% to 3.6%), Peripheral
  Congestive heart failure: Cardiovascular: Congestive heart failure (less than 2%), Heart
  Cough: Respiratory: Cough (2%)
  Dizziness: Neurologic: Dizziness (3.5% to 6.4%), Headache (4.6%)
  Fatigue: Other: Fatigue (4.8%)
  Headache: Neurologic: Dizziness (3.5% to 6.4%), Headache (4.6%)
  Peripheral edema: edema (4.6% to 8%)

## Nc1cccc2c1CN(C1CCC(=O)NC1=O)C2=O (stereo not drawn) [Revlimid]
Multiple myeloma, grade 3.4
  Cataract, Grade 3 or 4: 1.4% (grade 3.4))
[3]
  Multiple organ failure: 1.4%
  Pneumonitis: syndrome, grade 3 or 4, 1.4%), Pulmonary embolism, Grade 3 or 4
  Pulmonary hypertension: 1.4%
In vivo
  Hepatotoxicity: 15%
  Myocardial infarction: < 5%
Listed without frequency
  Common side effect, Other: Infectious disease
  Serious side effect, Dermatologic: Stevens-Johnson syndrome
  Serious side effect, Hematologic: Thrombosis
  Serious side effect, Hepatic: Liver failure
  Serious side effect, Other: Other: Angioedema, Multiple organ failure (Myelodysplastic
  Serious side effect, Renal: Renal: Interstitial nephritis, acute
Mantle cell lymphoma
  Anemia, All grades: 31%
  Anemia, Grade 3 or 4: 11%
  Arthralgia: 8%
  Asthenia: 14%
  Backache: 13%
  Constipation: 16%
  Cough: 28%
  Diarrhea: 31%
  Dyspnea: 16.9%; mantle cell lymphoma, 18%), Epistaxis (Myelodysplastic
  Fatigue: 34%
  Fever: 23%
  Hypokalemia: 13%
  Hypoxia: Respiratory: Hypoxia (Mantle cell lymphoma, 2%), Pleural
  Neutropenia, All grades: 49%
  Neutropenia, Grade 3 or 4: 43%
  Peripheral edema: 16%
  Pleural effusion: effusion (Mantle cell lymphoma, 7%), Pneumonia (Multiple
  Pneumonia: mantle cell lymphoma, 14%), Pneumonitis (Myelodysplastic
  Pruritus: 17%
  Rash: cell lymphoma, 22%)
  Thrombocytopenia, All grades: 36%)
  Thrombocytopenia, Grade 3 or 4: 28%
  Tumor flare: 10%
  Upper respiratory infection: 13%
Multiple myeloma
  Arthralgia: Musculoskeletal: Arthralgia (Multiple myeloma, 19%;
  Asthenia: Neurologic: Asthenia (Multiple myeloma, 28.2%; myelodysplastic
  Atrial fibrillation, Grade 3 or 4: 3.7%
  Blurred vision: Ophthalmic: Blurred vision (Multiple myeloma, 17.3%)
  Cataract, Grade 3 or 4: Ophthalmic: Cataract, Grade 3 or 4 (Multiple myeloma, 9.6%;
  Congestive heart failure, Grade 3 or 4: failure, Grade 3 or 4 (multiple myeloma, 1.4%), Myocardial
  Constipation: Gastrointestinal: Constipation (Multiple myeloma, 40.5%;
  Cough: Respiratory: Cough (Multiple myeloma, 22.7%; myelodysplastic
  Cramp: 33.4%
  Insomnia: Insomnia (Multiple myeloma, 27.6%; myelodysplastic syndrome,
  Peripheral edema: Cardiovascular: Peripheral edema (multiple myeloma, 26.3%;
  Pruritus: Dermatologic: Pruritus (Multiple myeloma, 7.6%; myelodysplastic
  Rash: ≤ 26.1%
  Tremor: 21.2%
  Upper respiratory infection: 15.5%), Upper respiratory infection (Multiple myeloma, 24.6%;
Myelodysplastic syndrome
  Anemia, All grades: 43.8%; myelodysplastic syndrome, 11.5%; mantle cell lymphoma,
  Anemia, Grade 3 or 4: 18.2%; myelodysplastic syndrome, 6.1%; mantle cell lymphoma,
  Arthralgia: 21.6%
  Asthenia: 14.9%
  Backache: 20.9%
  Constipation: 23.6%
  Cough: 19.6%
  Cramp: 18.2%
  Diarrhea: 48.6%
  Epistaxis: 14.9%
  Fatigue: 31.1%
  Fever: 20.9%
  Hypokalemia: 17.1%; myelodysplastic syndrome, 10.8%; mantle cell lymphoma,
  Insomnia: 10.1%
  Nasopharyngitis: 23%
  Neutropenia, All grades: 58.8%
  Neutropenia, Grade 3 or 4: 53.4%
  Peripheral edema: 20.3%
  Pneumonia: 11.5%
  Pruritus: 41.9%
  Rash: 35.8%
  Thrombocytopenia, All grades: 21.5%; myelodysplastic syndrome, 61.5%; mantle cell lymphoma,
  Thrombocytopenia, Grade 3 or 4: 12.2%; myelodysplastic syndrome, 50%; mantle cell lymphoma,
  Upper respiratory infection: 14.9%

## CN(C)CCCC1(c2ccc(F)cc2)OCc2cc(C#N)ccc21 (stereo not drawn) [Citalopram (Celexa)]
In vivo
  Agitation: Psychiatric: Agitation (3% to 10%)
  Cerebrovascular accident: Neurologic: Cerebrovascular accident (0.1% to less than 1%)
  Constipation: Gastrointestinal: Constipation (13%), Diarrhea (8%), Nausea (20%
  Diaphoresis: Dermatologic: Diaphoresis (5% to 18%)
  Diarrhea: Gastrointestinal: Constipation (13%), Diarrhea (8%), Nausea (20%
  Disorder of ejaculation: Reproductive: Disorder of ejaculation (6.1%)
  Dizziness: Neurologic: Dizziness (14%), Headache (18%), Insomnia (15%),
  Fatigue: Other: Fatigue (5%)
  Headache: Neurologic: Dizziness (14%), Headache (18%), Insomnia (15%),
  Insomnia: Neurologic: Dizziness (14%), Headache (18%), Insomnia (15%),
  Myocardial infarction: Cardiovascular: Myocardial infarction (0.1% to 1%), Prolonged QT
  Nausea: Gastrointestinal: Constipation (13%), Diarrhea (8%), Nausea (20%
  Prolonged QT interval: interval (0.5% to 1.9%), Torsades de pointes
  Sedated: Sedated (15%), Somnolence (18%), Tremor (8% to 16%)
  Somnolence: Sedated (15%), Somnolence (18%), Tremor (8% to 16%)
  Tremor: Sedated (15%), Somnolence (18%), Tremor (8% to 16%)
  Vomiting: to 21%), Vomiting (4% to 20%), Xerostomia (17% to 20%)
  Xerostomia: to 21%), Vomiting (4% to 20%), Xerostomia (17% to 20%)

## CC(C)NCC(O)COc1ccc(CC(N)=O)cc1 (stereo not drawn) [Atenolol (Tenormin)]
In vivo
  Bradyarrhythmia: Cardiovascular: Bradyarrhythmia (3% to 18%), Cold extremities
  Cold extremities: (12%), Hypotension (4% to 25%)
  Depression: Psychiatric: Depression (up to 12%)
  Dizziness: Neurologic: Dizziness (13%)
  Fatigue: Other: Fatigue (up to 26%)
  Hypotension: (12%), Hypotension (4% to 25%)
  Pulmonary embolism: Respiratory: Pulmonary embolism (1.2%)

## COCCOC(=O)C1=C(C)NC(C)=C(C(=O)OC(C)C)C1c1cccc([N+](=O)[O-])c1 (stereo not drawn) [Nimodipine (Nimotop)]
In vivo
  Congestive heart failure: Cardiovascular: Congestive heart failure (less than 1%)
  Diarrhea: Gastrointestinal: Diarrhea (up to 4.2%), Nausea (0.6% to 1.4%)
  Disseminated intravascular coagulation: (less than 1%), Hematoma (less than 1%)
  Gastrointestinal hemorrhage: Gastrointestinal: Gastrointestinal hemorrhage (less than 1%)
  Headache: Neurologic: Headache (up to 4.1%)
  Hematoma: (less than 1%), Hematoma (less than 1%)
  Hypotension: Cardiovascular: Hypotension (up to 8.1%)
  Nausea: Gastrointestinal: Diarrhea (up to 4.2%), Nausea (0.6% to 1.4%)
  Serious side effects, listed without incidence or only as rare: Hematologic: Bleeding, Disseminated intravascular coagulation
